Reference: the supplement of paper PMC10307832

Key:
Test in all cases: relative viability (nuclei count vs DMSO), 5 days (fraction); higher = more cells survive
[1] = tested on: NCI-H2087
Method in brief: (§1)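 Cells from lung cancer lines were seeded into 1536-well plates and, one day later, dosed by pin tool. Treatments were either a single drug or a fixed dose of an anchor drug with five library-drug doses (not always all listed) in √10 steps. After 5 days, nuclei were stained in a one-step fixation (final 0.05% Triton X-100, 1% formaldehyde, 1 ug/ml Hoechst) and counted on 4× images, and relative viability is the treated-to-vehicle nuclei ratio, as the median of duplicate plates.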

[2] = tested on: HOP-62
Method in brief: as §1

[3] = tested on: NCI-H647
Method in brief: as §1

[4] = tested on: SW 1573
Method in brief: as §1

[5] = tested on: PC-3 [JPC-3]
Method in brief: as §1

[6] = tested on: LOU-NH91
Method in brief: as §1

[7] = tested on: H3255
Method in brief: as §1

[8] = tested on: NCI-H1975
Method in brief: as §1

[9] = tested on: EKVX
Method in brief: as §1

[10] = tested on: EPLC-272H
Method in brief: as §1

[11] = tested on: BEN
Method in brief: as §1

[12] = tested on: HCC-827
Method in brief: as §1

[13] = tested on: NCI-H1437
Method in brief: as §1

[14] = tested on: NCI-H2126
Method in brief: as §1

[15] = tested on: COR-L 105
Method in brief: as §1

[16] = tested on: LCLC-97TM1
Method in brief: as §1

[17] = tested on: NCI-H1666
Method in brief: as §1

[18] = tested on: NCI-H2085
Method in brief: as §1

[19] = tested on: 201T
Method in brief: as §1

[20] = tested on: LU99A
Method in brief: as §1

[21] = tested on: NCI-H358
Method in brief: as §1

[22] = tested on: HCC-44
Method in brief: as §1

CC(C)Oc1cc(Nc2nc(N[C@@H](C)c3ccc(F)cn3)ncc2Cl)n[nH]1 [AZ23] + C[C@@H](Oc1cc(-c2cnn(C3CCNCC3)c2)cnc1N)c1c(Cl)ccc(F)c1Cl [Crizotinib] (partner 1 µM)
relative viability ([1]; first compound 0.01 µM): 1.16 | relative viability ([1]; first compound 0.03162 µM): 1.11 | relative viability ([1]; first compound 0.3162 µM): 1.04 | relative viability ([2]; first compound 0.01 µM): 0.992 | relative viability ([2]; first compound 0.03162 µM): 0.912 | relative viability ([2]; first compound 0.3162 µM): 1.08 | relative viability ([3]; first compound 0.01 µM): 1.71 | relative viability ([3]; first compound 0.03162 µM): 1.37 | relative viability ([3]; first compound 0.3162 µM): 1.3 | relative viability ([4]; first compound 0.01 µM): 0.915 | relative viability ([4]; first compound 0.03162 µM): 0.997 | relative viability ([4]; first compound 0.3162 µM): 0.727 | relative viability ([5]; first compound 0.01 µM): 1.3 | relative viability ([5]; first compound 0.03162 µM): 1.07 | relative viability ([5]; first compound 0.3162 µM): 0.91 | relative viability ([6]; first compound 0.01 µM): 0.719 | relative viability ([6]; first compound 0.03162 µM): 0.727 | relative viability ([6]; first compound 0.3162 µM): 0.771 | relative viability ([7]; first compound 0.01 µM): 0.981 | relative viability ([7]; first compound 0.03162 µM): 1.18 | relative viability ([7]; first compound 0.3162 µM): 1.01 | relative viability ([8]; first compound 0.01 µM): 1.44 | relative viability ([8]; first compound 0.03162 µM): 0.953 | relative viability ([8]; first compound 0.3162 µM): 1.09 | relative viability ([9]; first compound 0.01 µM): 1.05 | relative viability ([9]; first compound 0.03162 µM): 1.03 | relative viability ([9]; first compound 0.3162 µM): 1.03 | relative viability ([10]; first compound 0.01 µM): 1.19 | relative viability ([10]; first compound 0.03162 µM): 1.19 | relative viability ([11]; first compound 0.01 µM): 0.855 | relative viability ([11]; first compound 0.03162 µM): 1.09 | relative viability ([11]; first compound 0.3162 µM): 0.968 | relative viability ([12]; first compound 0.01 µM): 0.993 | relative viability ([12]; first compound 0.03162 µM): 1.03 | relative viability ([12]; first compound 0.3162 µM): 0.881 | relative viability ([13]; first compound 0.01 µM): 1.21 | relative viability ([13]; first compound 0.03162 µM): 0.996 | relative viability ([13]; first compound 0.3162 µM): 1.03 | relative viability ([14]; first compound 0.01 µM): 1.24 | relative viability ([14]; first compound 0.03162 µM): 1.11 | relative viability ([14]; first compound 0.3162 µM): 1.05 | relative viability ([15]; first compound 0.01 µM): 0.618 | relative viability ([15]; first compound 0.03162 µM): 0.825 | relative viability ([15]; first compound 0.3162 µM): 0.786 | relative viability ([16]; first compound 0.01 µM): 0.424 | relative viability ([16]; first compound 0.03162 µM): 0.527 | relative viability ([16]; first compound 0.3162 µM): 0.305 | relative viability ([17]; first compound 0.01 µM): 1.03 | relative viability ([17]; first compound 0.03162 µM): 0.978 | relative viability ([17]; first compound 0.3162 µM): 1.02 | relative viability ([18]; first compound 0.01 µM): 1.03 | relative viability ([18]; first compound 0.03162 µM): 0.94 | relative viability ([18]; first compound 0.3162 µM): 0.838 | relative viability ([19]; first compound 0.01 µM): 1.06 | relative viability ([19]; first compound 0.03162 µM): 1.05 | relative viability ([19]; first compound 0.3162 µM): 1.01 | relative viability ([20]; first compound 0.01 µM): 0.617 | relative viability ([20]; first compound 0.03162 µM): 0.563 | relative viability ([20]; first compound 0.3162 µM): 0.6 | relative viability ([21]; first compound 0.01 µM): 0.522 | relative viability ([21]; first compound 0.03162 µM): 0.781 | relative viability ([21]; first compound 0.3162 µM): 0.654 | relative viability ([22]; first compound 0.01 µM): 0.934 | relative viability ([22]; first compound 0.03162 µM): 0.952 | relative viability ([22]; first compound 0.3162 µM): 0.826

COc1cc(N2CCC(C(N)=O)CC2)ccc1Nc1nc(N)c(Cl)c(Nc2ccccc2S(=O)(=O)C(C)C)n1 [HG-5-88-01] + C[C@@H](Oc1cc(-c2cnn(C3CCNCC3)c2)cnc1N)c1c(Cl)ccc(F)c1Cl [Crizotinib] (partner 1 µM)
relative viability ([1]; first compound 0.04 µM): 0.758 | relative viability ([1]; first compound 0.1265 µM): 0.868 | relative viability ([1]; first compound 0.4 µM): 0.839 | relative viability ([1]; first compound 1.265 µM): 0.825 | relative viability ([1]; first compound 4 µM): 0.527 | relative viability ([2]; first compound 0.04 µM): 0.894 | relative viability ([2]; first compound 0.1265 µM): 1.12 | relative viability ([2]; first compound 0.4 µM): 0.83 | relative viability ([2]; first compound 1.265 µM): 0.925 | relative viability ([2]; first compound 4 µM): 0.96 | relative viability ([3]; first compound 0.04 µM): 1.16 | relative viability ([3]; first compound 0.1265 µM): 0.992 | relative viability ([3]; first compound 1.265 µM): 0.955 | relative viability ([3]; first compound 4 µM): 0.393 | relative viability ([4]; first compound 0.04 µM): 0.806 | relative viability ([4]; first compound 0.1265 µM): 0.848 | relative viability ([4]; first compound 0.4 µM): 0.907 | relative viability ([4]; first compound 1.265 µM): 0.568 | relative viability ([4]; first compound 4 µM): 0.475 | relative viability ([5]; first compound 0.04 µM): 0.983 | relative viability ([5]; first compound 0.1265 µM): 1.03 | relative viability ([5]; first compound 0.4 µM): 1.07 | relative viability ([5]; first compound 1.265 µM): 0.937 | relative viability ([5]; first compound 4 µM): 0.64 | relative viability ([6]; first compound 0.04 µM): 0.745 | relative viability ([6]; first compound 0.1265 µM): 0.737 | relative viability ([6]; first compound 0.4 µM): 0.671 | relative viability ([6]; first compound 1.265 µM): 0.494 | relative viability ([6]; first compound 4 µM): 0.566 | relative viability ([7]; first compound 0.04 µM): 0.844 | relative viability ([7]; first compound 0.1265 µM): 0.949 | relative viability ([7]; first compound 0.4 µM): 0.833 | relative viability ([7]; first compound 4 µM): 0.308 | relative viability ([8]; first compound 0.04 µM): 1.03 | relative viability ([8]; first compound 0.1265 µM): 1.03 | relative viability ([8]; first compound 0.4 µM): 0.821 | relative viability ([8]; first compound 1.265 µM): 0.794 | relative viability ([8]; first compound 4 µM): 0.334 | relative viability ([9]; first compound 0.04 µM): 0.989 | relative viability ([9]; first compound 0.1265 µM): 0.93 | relative viability ([9]; first compound 0.4 µM): 0.892 | relative viability ([9]; first compound 4 µM): 0.843 | relative viability ([10]; first compound 0.04 µM): 0.972 | relative viability ([10]; first compound 0.1265 µM): 0.909 | relative viability ([10]; first compound 0.4 µM): 0.964 | relative viability ([10]; first compound 1.265 µM): 0.704 | relative viability ([10]; first compound 4 µM): 0.0745 | relative viability ([11]; first compound 0.04 µM): 0.975 | relative viability ([11]; first compound 0.1265 µM): 0.915 | relative viability ([11]; first compound 0.4 µM): 0.895 | relative viability ([11]; first compound 1.265 µM): 0.625 | relative viability ([11]; first compound 4 µM): 0.962 | relative viability ([12]; first compound 0.04 µM): 0.946 | relative viability ([12]; first compound 0.1265 µM): 0.917 | relative viability ([12]; first compound 0.4 µM): 0.94 | relative viability ([12]; first compound 1.265 µM): 0.831 | relative viability ([12]; first compound 4 µM): 0.392 | relative viability ([13]; first compound 0.04 µM): 0.896 | relative viability ([13]; first compound 0.1265 µM): 0.927 | relative viability ([13]; first compound 0.4 µM): 0.899 | relative viability ([13]; first compound 1.265 µM): 0.822 | relative viability ([13]; first compound 4 µM): 1.03 | relative viability ([14]; first compound 0.04 µM): 1.02 | relative viability ([14]; first compound 0.1265 µM): 1.09 | relative viability ([14]; first compound 0.4 µM): 0.976 | relative viability ([14]; first compound 1.265 µM): 0.968 | relative viability ([14]; first compound 4 µM): 1.01 | relative viability ([15]; first compound 0.04 µM): 0.855 | relative viability ([15]; first compound 0.1265 µM): 0.728 | relative viability ([15]; first compound 0.4 µM): 0.519 | relative viability ([15]; first compound 1.265 µM): 0.346 | relative viability ([15]; first compound 4 µM): 0.366 | relative viability ([16]; first compound 0.04 µM): 0.461 | relative viability ([16]; first compound 0.1265 µM): 0.379 | relative viability ([16]; first compound 0.4 µM): 0.359 | relative viability ([16]; first compound 1.265 µM): 0.23 | relative viability ([16]; first compound 4 µM): 0.239 | relative viability ([17]; first compound 0.04 µM): 1.01 | relative viability ([17]; first compound 0.1265 µM): 1.1 | relative viability ([17]; first compound 0.4 µM): 0.941 | relative viability ([17]; first compound 1.265 µM): 0.794 | relative viability ([17]; first compound 4 µM): 0.594 | relative viability ([18]; first compound 0.04 µM): 0.734 | relative viability ([18]; first compound 0.1265 µM): 0.856 | relative viability ([18]; first compound 0.4 µM): 0.873 | relative viability ([18]; first compound 1.265 µM): 0.694 | relative viability ([18]; first compound 4 µM): 0.63 | relative viability ([19]; first compound 0.04 µM): 1 | relative viability ([19]; first compound 0.1265 µM): 0.846 | relative viability ([19]; first compound 0.4 µM): 1.03 | relative viability ([19]; first compound 1.265 µM): 0.986 | relative viability ([19]; first compound 4 µM): 1.11 | relative viability ([20]; first compound 0.04 µM): 0.554 | relative viability ([20]; first compound 0.1265 µM): 0.615 | relative viability ([20]; first compound 0.4 µM): 0.511 | relative viability ([20]; first compound 1.265 µM): 0.491 | relative viability ([20]; first compound 4 µM): 0.423 | relative viability ([21]; first compound 0.04 µM): 0.526 | relative viability ([21]; first compound 0.1265 µM): 0.461 | relative viability ([21]; first compound 0.4 µM): 0.529 | relative viability ([21]; first compound 1.265 µM): 0.318 | relative viability ([21]; first compound 4 µM): 0.235 | relative viability ([22]; first compound 0.04 µM): 0.777 | relative viability ([22]; first compound 0.1265 µM): 0.791 | relative viability ([22]; first compound 0.4 µM): 0.797 | relative viability ([22]; first compound 1.265 µM): 0.611 | relative viability ([22]; first compound 4 µM): 0.489
